Our source for the EC50 values is patent US10160729B2, “Hsp70 modulators and methods for making and using the same” (Memorial Sloan Kettering Cancer Center, priority 2014, dated 2018).

The structures appear in SMILES notation.

The experiment deals with MOLM-13 cells. Put plainly: Caspase cleavage assay (Caspase3, 7 activation). Particulars: Homo sapiens, 16 h treatment, caspase substrate Z-DEVD-R110, read-out: c* Concentration at which 50% of the maximum signal was achieved (caspase activation). It counts as cell-based. In short, it runs like this:
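Cells (30,000/well, RPMI) treated 16 h with compound or DMSO in triplicate, then given buffer with 10 mM HEPES pH 7.5, 2 mM EDTA, 0.1% CHAPS and 25 μM Z-DEVD-R110. Fluorescence read once signal stabilized; results given as percentage increase in apoptotic cells versus DMSO-treated control.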
`CN(C)[C@@H]1CCN(c2ncc(Sc3ccc(C(N)=O)cc3)c(OCc3ccccc3)n2)C1` [compound 207, (R)-4-((4-(Benzyloxy)-2-(3-(dimethylamino)pyrrolidin-1-yl)pyrimidin-5-yl)thio)benzamide]: the EC50 lay within 400 to 1000 nM.

Regarding `COc1cc(COc2nc(N3CC[C@@H](N(C)C)C3)ncc2Sc2ccc(C(N)=O)cc2)ccc1F` [compound 208, (R)-4-((2-(3-(Dimethylamino)pyrrolidin-1-yl)-4-((4-fluoro-3-methoxybenzyl)oxy)pyrimidin-5-yl)thio)benzamide], the EC50 was below 200 nM.

`COc1cc(COc2nc(N3CC[C@@H](N(C)C)C3)ncc2Sc2ccc(C(N)=O)c(Cl)c2)ccc1F` [compound 212, (R)-2-Chloro-4-((2-(3-(dimethylamino)pyrrolidin-1-yl)-4-((4-fluoro-3-methoxybenzyl)oxy)pyrimidin-5-yl)thio)benzamide]: the EC50 is below 200 nM.

For the molecule `COc1cc(COc2nc(N3CC[C@@H](N)C3)ncc2Sc2ccc(C(N)=O)c(Cl)c2)ccc1F` [compound 213, (R)-4-((2-(3-Aminopyrrolidin-1-yl)-4-((4-fluoro-3-methoxybenzyl)oxy)pyrimidin-5-yl)thio)-2-chlorobenzamide], the EC50 is at least 1200 nM.

Regarding `CN[C@@H]1CCN(c2ncc(Sc3ccc(C(N)=O)c(Cl)c3)c(OCc3ccc(F)c(OC)c3)n2)C1` [compound 214, (R)-2-Chloro-4-((4-((4-fluoro-3-methoxybenzyl)oxy)-2-(3-(methylamino)pyrrolidin-1-yl)pyrimidin-5-yl)thio)benzamide], the EC50 is 400 to 1000 nM.

As to `CN(C)[C@@H]1CCN(c2ncc(Sc3ccc(C(N)=O)c(C(F)(F)F)c3)c(OCc3cccc(Cl)c3)n2)C1` [compound 218, (R)-4-((4-((3-Chlorobenzyl)oxy)-2-(3-(dimethylamino)pyrrolidin-1-yl)pyrimidin-5-yl)thio)-2-(trifluoromethyl)benzamide], the EC50 was below 200 nM.

Take `CN(C)C1CN(c2ncc(Sc3ccc(C(N)=O)c(C(F)(F)F)c3)c(OCc3cccc(Cl)c3)n2)C1` [compound 225, 4-((4-((3-Chlorobenzyl)oxy)-2-(3-(dimethylamino)azetidin-1-yl)pyrimidin-5-yl)thio)-2-(trifluoromethyl)benzamide]: the EC50 was in the range of 200 to 400 nM.

As for `C#CCCCCN1CCN(c2ncc(Sc3ccc(C(N)=O)c(C(F)(F)F)c3)c(OCc3cccc(Cl)c3)n2)CC1` [compound 226, 4-((4-((3-Chlorobenzyl)oxy)-2-(4-(hex-5-yn-1-yl)piperazin-1-yl)pyrimidin-5-yl)thio)-2-(trifluoromethyl)benzamide], the EC50 lay within 200 to 400 nM.

As to `NC(=O)c1ccc(Sc2cnc(N3CCN(C4CC4)CC3)nc2OCc2cccc(Cl)c2)cc1C(F)(F)F` [compound 227, 4-((4-((3-Chlorobenzyl)oxy)-2-(4-cyclopropylpiperazin-1-yl)pyrimidin-5-yl)thio)-2-(trifluoromethyl)benzamide], the EC50 was at least 1200 nM.

For `NC(=O)c1ccc(Sc2cnc(N3CCN(Cc4ccco4)CC3)nc2OCc2cccc(Cl)c2)cc1C(F)(F)F` [compound 228, 4-((4-((3-Chlorobenzyl)oxy)-2-(4-(furan-2-ylmethyl)piperazin-1-yl)pyrimidin-5-yl)thio)-2-(trifluoromethyl)benzamide], the EC50 is below 200 nM.

As to `NC(=O)c1ccc(Sc2cnc(N3CCN(Cc4nccs4)CC3)nc2OCc2cccc(Cl)c2)cc1C(F)(F)F` [compound 229, 4-((4-((3-Chlorobenzyl)oxy)-2-(4-(thiazol-2-ylmethyl)piperazin-1-yl)pyrimidin-5-yl)thio)-2-(trifluoromethyl)benzamide], the EC50 lay within 200 to 400 nM.

With `CN1CCN(c2ncc(Oc3ccc(C(N)=O)cc3)c(OCc3ccccc3)n2)CC1` [compound 282, 4-((4-(Benzyloxy)-2-(4-methylpiperazin-1-yl)pyrimidin-5-yl)oxy)benzamide], the EC50 is at least 1200 nM.

As to `COc1ccc(COc2nc(N3CCN(C)CC3)ncc2Oc2ccc(C(N)=O)cc2)cc1` [compound 283, 4-((4-((4-Methoxybenzyl)oxy)-2-(4-methylpiperazin-1-yl)pyrimidin-5-yl)oxy)benzamide], the EC50 was at least 1200 nM.

As for `CN1CCN(c2ncc(Oc3ccc(C(N)=O)cc3)c(OCc3cccc(N(C)C)c3)n2)CC1` [compound 284, 4-((4-((3-(Dimethylamino)benzyl)oxy)-2-(4-methylpiperazin-1-yl)pyrimidin-5-yl)oxy)benzamide], the EC50 lay in the range of 400 to 1000 nM.

As to `CN1CCN(c2ncc(Cc3ccc(C(N)=O)cc3)c(OCc3ccccc3)n2)CC1` [compound 299, 4-((4-(Benzyloxy)-2-(4-methylpiperazin-1-yl)pyrimidin-5-yl)methyl)benzamide], the EC50 lay within 200 to 400 nM.

On to `CN1CCN(c2ncc(Cc3ccc(C(N)=O)cc3)c(OCc3ccc(C#N)cc3)n2)CC1` [compound 304, 4-((4-((4-Cyanobenzyl)oxy)-2-(4-methylpiperazin-1-yl)pyrimidin-5-yl)methyl)benzamide], for which the EC50 is at least 1200 nM.

As for `COc1cccc(COc2nc(N3CCN(C4(C)CC4)CC3)ncc2Sc2ccc(C(N)=O)cc2)c1` [compound 311, 4-((4-((3-Methoxybenzyl)oxy)-2-(4-(1-methylcyclopropyl)piperazin-1-yl)pyrimidin-5-yl)thio)benzamide], the EC50 was at least 1200 nM.

As to `COc1cccc(COc2nc(N3CCN(C(C)(C)C4CC4)CC3)ncc2Sc2ccc(C(N)=O)cc2)c1` [compound 313, 4-((2-(4-(2-Cyclopropylpropan-2-yl)piperazin-1-yl)-4-((3-methoxybenzyl)oxy)pyrimidin-5-yl)thio)benzamide], the EC50 was at least 1200 nM.

With `COc1cccc(COc2nc(N3CCN([C@@H](C)C4CC4)CC3)ncc2Sc2ccc(C(N)=O)cc2)c1` [compound 315, (S)-4-((2-(4-(1-Cyclopropylethyl)piperazin-1-yl)-4-((3-methoxybenzyl)oxy)pyrimidin-5-yl)thio)benzamide], the EC50 lay in the range of 1000 to 1200 nM.

As for `COc1cccc(COc2nc(N3CCN([C@H](C)C4CC4)CC3)ncc2Sc2ccc(C(N)=O)cc2)c1` [compound 317, (R)-4-((2-(4-(1-Cyclopropylethyl)piperazin-1-yl)-4-((3-methoxybenzyl)oxy)pyrimidin-5-yl)thio)benzamide], the EC50 is at least 1200 nM.

As to `COc1cccc(COc2nc(N3CCNC(=O)C3)ncc2Sc2ccc(C(N)=O)cc2)c1` [compound 319, 4-((4-((3-Methoxybenzyl)oxy)-2-(3-oxopiperazin-1-yl)pyrimidin-5-yl)thio)benzamide], the EC50 is at least 1200 nM.

Regarding `COc1cccc(COc2nc(N3CCN(CC4CC4)C(=O)C3)ncc2Sc2ccc(C(N)=O)cc2)c1` [compound 321, 4-((2-(4-(Cyclopropylmethyl)-3-oxopiperazin-1-yl)-4-((3-methoxybenzyl)oxy)pyrimidin-5-yl)thio)benzamide], the EC50 is below 200 nM.

`COc1cccc(COc2nc(N3CCN(Cc4ncco4)CC3)ncc2Sc2ccc(C(N)=O)cc2)c1` [compound 323, 4-((4-((3-Methoxybenzyl)oxy)-2-(4-(oxazol-2-ylmethyl)piperazin-1-yl)pyrimidin-5-yl)thio)benzamide]: the EC50 was below 200 nM.

As to `COc1cccc(COc2nc(N3CCN(CC#CCO)CC3)ncc2Sc2ccc(C(N)=O)cc2)c1` [compound 326, 4-((2-(4-(4-Hydroxybut-2-yn-1-yl)piperazin-1-yl)-4-((3-methoxybenzyl)oxy)pyrimidin-5-yl)thio)benzamide], the EC50 is below 200 nM.
